Measurements published in ChEMBL document CHEMBL1143695, “Synthesis and biological studies of novel 2-aminoalkylethers as potential antiarrhythmic agents for the conversion of atrial fibrillation” (J Med Chem, 2007).

Assays:
Rattus norvegicus [1] = test: Antiarrhythmic activity in intravenously dosed Sprague-Dawley rat with ischemia-induced arrhythmia; assay type: functional, Heart
Rattus norvegicus [2] = test: CNS toxicity in iv dosed Sprague-Dawley rat assessed as cumulative convulsion dose; assay type: organism-based; conditions: in vivo
in vivo = conditions: CD1, mouse, iv
Description: Toxicity in intravenously dosed CD1 mouse

Compound O=C1CCN([C@@H]2CCCC[C@H]2OCCc2cccc3ccccc23)CC1 has an ED50 (Rattus norvegicus [1]) of 0.9 µmol/kg/min and an Activity (Rattus norvegicus [2]) of 75 µmol/kg.

Work on COc1ccc(CCO[C@@H]2CCCC[C@H]2N2CCCC2)cc1OC yielded an ED50 (Rattus norvegicus [1]) of 1.3 µmol/kg/min and an Activity (Rattus norvegicus [2]) of 118 µmol/kg.

Compound c1ccc2cc(CCO[C@@H]3CCC[C@H]3N3CCOCC3)ccc2c1 has an ED50 (Rattus norvegicus [1]) of 1.5 µmol/kg/min and an Activity (Rattus norvegicus [2]) of 187 µmol/kg.

For c1cc(CCO[C@@H]2CCCC[C@H]2N2CCOCC2)c2ccoc2c1, the LD50 (in vivo) was 56 µmol/kg and the ED50 (Rattus norvegicus [1]) was 1.4 µmol/kg/min.

Clc1ccc(CCO[C@@H]2CCCC[C@H]2N2CCOCC2)c(Cl)c1 showed an ED50 (Rattus norvegicus [1]) of 2.1 µmol/kg/min and an Activity (Rattus norvegicus [2]) of 94 µmol/kg.

CC(=O)N1CCN([C@@H]2CCCC[C@H]2OCCc2ccc3ccccc3c2)CC1 showed an Activity (Rattus norvegicus [2]) of 67 µmol/kg.

Compound COc1ccc(CCO[C@@H]2CCCC[C@H]2N2CCC(=O)C2)cc1OC has an ED50 (Rattus norvegicus [1]) of 4.5 µmol/kg/min and an Activity (Rattus norvegicus [2]) of 235 µmol/kg.

O=C1CCN([C@@H]2CCCC[C@H]2OCCc2csc3ccccc23)C1 showed an Activity (Rattus norvegicus [2]) of 203 µmol/kg.

Work on OC1CCN([C@@H]2CCCC[C@H]2OCCc2cccc3ccccc23)C1 (mixture of isomers) yielded an ED50 (Rattus norvegicus [1]) of 0.8 µmol/kg/min and an Activity (Rattus norvegicus [2]) of 67 µmol/kg.

For Clc1cccc(Cl)c1CCO[C@@H]1CCCC[C@H]1N1CCOCC1, the LD50 (in vivo) was 76 µmol/kg, the ED50 (Rattus norvegicus [1]) was 1.2 µmol/kg/min and the Activity (Rattus norvegicus [2]) was 86 µmol/kg.

c1ccc2c(CCO[C@@H]3CCCC[C@H]3N3CCCC3)cccc2c1 showed an ED50 (Rattus norvegicus [1]) of 0.9 µmol/kg/min.

Compound OC1CCN([C@@H]2CCCC[C@H]2OCCc2ccccc2Br)C1 (mixture of isomers) has an ED50 (Rattus norvegicus [1]) of 0.4 µmol/kg/min and an Activity (Rattus norvegicus [2]) of 67 µmol/kg.

COc1ccc(CCCO[C@@H]2CCCC[C@H]2N2CCOCC2)cc1OC showed an LD50 (in vivo) of 112 µmol/kg, an ED50 (Rattus norvegicus [1]) of 1.5 µmol/kg/min and an Activity (Rattus norvegicus [2]) of 109 µmol/kg.

Compound COCCN(CCOC)[C@@H]1CCCC[C@H]1OCCc1ccc2ccccc2c1 has an ED50 (Rattus norvegicus [1]) of 3 µmol/kg/min and an Activity (Rattus norvegicus [2]) of 83 µmol/kg.

O=C1CCN([C@@H]2CCCC[C@@H]2OCCc2cccc3ccccc23)C1 showed an ED50 (Rattus norvegicus [1]) of 1.6 µmol/kg/min and an Activity (Rattus norvegicus [2]) of 145 µmol/kg.

Compound COc1ccc(CCO[C@@H]2CCCC[C@H]2N2CCOCC2)cc1OC has an LD50 (in vivo) of 97 µmol/kg, an ED50 (Rattus norvegicus [1]) of 1.5 µmol/kg/min and an Activity (Rattus norvegicus [2]) of 113 µmol/kg.

In the case of COc1ccc(CCO[C@@H]2CCCC[C@H]2N2CCC3(C2)OCCO3)cc1OC, the ED50 (Rattus norvegicus [1]) is reported as 1.6 µmol/kg/min and the Activity (Rattus norvegicus [2]) is reported as 91 µmol/kg.

Work on Clc1cccc(Cl)c1CCO[C@@H]1CCCC[C@H]1N1CCSC1 yielded an ED50 (Rattus norvegicus [1]) of 6.5 µmol/kg/min and an Activity (Rattus norvegicus [2]) of 331 µmol/kg.

Compound O=C1CCN([C@@H]2CCCC[C@H]2OCCc2ccc(Br)cc2Br)C1 has an Activity (Rattus norvegicus [2]) of 246 µmol/kg.

In the case of COc1ccc(CCCCO[C@@H]2CCCC[C@H]2N2CCOCC2)cc1OC, the ED50 (Rattus norvegicus [1]) is reported as 1.5 µmol/kg/min and the Activity (Rattus norvegicus [2]) is reported as 67 µmol/kg.

Work on c1ccc2cc(CCO[C@@H]3CCCC[C@H]3N3CCOCC3)ccc2c1 yielded an LD50 (in vivo) of 130 µmol/kg, an ED50 (Rattus norvegicus [1]) of 0.8 µmol/kg/min and an Activity (Rattus norvegicus [2]) of 85 µmol/kg.

With O=C1CCN([C@@H]2CCCC[C@H]2OCC(c2ccccc2)c2ccccc2)C1 the ED50 (Rattus norvegicus [1]) was 2.5 µmol/kg/min and the Activity (Rattus norvegicus [2]) was 155 µmol/kg.

In the case of O=C1CCN([C@@H]2CCCC[C@H]2OCCc2ccccc2Br)C1, the Activity (Rattus norvegicus [2]) is reported as 155 µmol/kg.

For Brc1ccc(CCO[C@@H]2CCCC[C@H]2N2CCOCC2)cc1, the LD50 (in vivo) was 103 µmol/kg, the ED50 (Rattus norvegicus [1]) was 2.5 µmol/kg/min and the Activity (Rattus norvegicus [2]) was 91 µmol/kg.

In the case of c1ccc2cc(OCCO[C@@H]3CCCC[C@H]3N3CCOCC3)ccc2c1, the Activity (Rattus norvegicus [2]) is reported as 62 µmol/kg.

Brc1ccc(CCO[C@H]2CCCC[C@H]2N2CCOCC2)cc1 (single isomer, unassigned) showed an ED50 (Rattus norvegicus [1]) of 2 µmol/kg/min and an Activity (Rattus norvegicus [2]) of 6.7 µmol/kg.

In the case of Brc1cccc(CCO[C@@H]2CCCC[C@H]2N2CCOCC2)c1, the ED50 (Rattus norvegicus [1]) is reported as 1.9 µmol/kg/min and the Activity (Rattus norvegicus [2]) is reported as 131 µmol/kg.

In the case of FC(F)(F)c1ccccc1CCO[C@H]1CCCC[C@H]1N1CCOCC1 (single isomer, unassigned), the ED50 (Rattus norvegicus [1]) is reported as 1.4 µmol/kg/min and the Activity (Rattus norvegicus [2]) is reported as 102 µmol/kg.

Compound c1cc(CCO[C@@H]2CCCC[C@H]2N2CCOCC2)c2ccsc2c1 has an LD50 (in vivo) of 38 µmol/kg, an ED50 (Rattus norvegicus [1]) of 0.7 µmol/kg/min and an Activity (Rattus norvegicus [2]) of 54 µmol/kg.

Compound Brc1ccc(OCCO[C@@H]2CCCC[C@H]2N2CCOCC2)cc1 has an ED50 (Rattus norvegicus [1]) of 2.5 µmol/kg/min and an Activity (Rattus norvegicus [2]) of 83 µmol/kg.

In the case of Brc1ccc(CCO[C@@H]2CCCC[C@H]2N2CCOCC2)c(Br)c1, the Activity (Rattus norvegicus [2]) is reported as 123 µmol/kg.

With OC1CCN([C@@H]2CCCC[C@@H]2OCCc2cccc3ccccc23)C1 (mixture of isomers) the ED50 (Rattus norvegicus [1]) was 0.4 µmol/kg/min and the Activity (Rattus norvegicus [2]) was 70 µmol/kg.

With c1ccc2c(CCO[C@@H]3CCCC[C@H]3N3CCOCC3)csc2c1 the LD50 (in vivo) was 52 µmol/kg, the ED50 (Rattus norvegicus [1]) was 0.8 µmol/kg/min and the Activity (Rattus norvegicus [2]) was 65 µmol/kg.

With c1ccc2c(CCO[C@@H]3CCCC[C@H]3N3CCC4(C3)OCCO4)cccc2c1 the Activity (Rattus norvegicus [2]) was 41 µmol/kg.

With O=C1CCN([C@@H]2CCCC[C@H]2OCCCC2CCCCC2)C1 the Activity (Rattus norvegicus [2]) was 300 µmol/kg.

O=C1CCN([C@@H]2CCCC[C@H]2OCCc2ccc(Br)c3ccccc23)C1 showed an ED50 (Rattus norvegicus [1]) of 2.8 µmol/kg/min and an Activity (Rattus norvegicus [2]) of 246 µmol/kg.

Brc1ccccc1CCO[C@@H]1CCCC[C@H]1N1CCOCC1 gave an LD50 (in vivo) of 86 µmol/kg, an ED50 (Rattus norvegicus [1]) of 1 µmol/kg/min and an Activity (Rattus norvegicus [2]) of 125 µmol/kg.

Work on C=C[C@H]1CN2CC[C@H]1C[C@@H]2[C@@H](O)c1ccnc2ccc(OC)cc12 [QUINIDINE] yielded an ED50 (Rattus norvegicus [1]) of 4 µmol/kg/min and an Activity (Rattus norvegicus [2]) of 317 µmol/kg.

Compound FC(F)(F)c1ccccc1CCO[C@@H]1CCCC[C@H]1N1CCOCC1 has an ED50 (Rattus norvegicus [1]) of 0.8 µmol/kg/min and an Activity (Rattus norvegicus [2]) of 134 µmol/kg.

O=C1CCN([C@@H]2CCCC[C@H]2OCCc2ccccc2C(F)(F)F)C1 showed an ED50 (Rattus norvegicus [1]) of 2.7 µmol/kg/min and an Activity (Rattus norvegicus [2]) of 225 µmol/kg.

With COc1ccc(CCO[C@@H]2CCCC[C@H]2N2CCNCC2)cc1OC the ED50 (Rattus norvegicus [1]) was 1.6 µmol/kg/min and the Activity (Rattus norvegicus [2]) was 392 µmol/kg.

For O=C1CCN([C@@H]2CCCC[C@H]2OCCc2ccc(Br)cc2)C1, the ED50 (Rattus norvegicus [1]) was 8 µmol/kg/min and the Activity (Rattus norvegicus [2]) was 161 µmol/kg.

Compound Brc1ccc(CCCO[C@@H]2CCCC[C@H]2N2CCOCC2)cc1 has an LD50 (in vivo) of 209 µmol/kg, an ED50 (Rattus norvegicus [1]) of 3.5 µmol/kg/min and an Activity (Rattus norvegicus [2]) of 143 µmol/kg.

For COc1ccc(CCCO[C@@H]2CCCC[C@H]2N2CCOCC2)c(OC)c1, the LD50 (in vivo) was 130 µmol/kg, the ED50 (Rattus norvegicus [1]) was 1.2 µmol/kg/min and the Activity (Rattus norvegicus [2]) was 94 µmol/kg.
